# The supplement of paper PMC10307832
# Assays:
# Test in all cases: relative viability (nuclei count vs DMSO), 5 days (fraction); higher = more cells survive
# AZ505 + Luminespib = compound: C1CCC(CC1)N(CCNCCC2=C3C(=C(C=C2)O)NC(=O)CO3)C(=O)CCNCCC4=CC(=C(C=C4)Cl)Cl [AZ505] + CCNC(=O)c1noc(-c2cc(C(C)C)c(O)cc2O)c1-c1ccc(CN2CCOCC2)cc1 [Luminespib] (partner 0.01 µM)
# Procedure, shortened: (§1)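 Medians of duplicate plates are given as relative viability. That measure is the nuclei count in treated wells divided by the count in vehicle wells. Counts were taken on 4× images of lung cancer cell lines in 1536-well plates, 5 days after pin-tool dosing the day after seeding with one drug alone or a fixed anchor-drug dose plus five library-drug doses (not always all listed) in √10 steps.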
# Dactolisib + OSI-027 = compound: Cn1c(=O)n(-c2ccc(C(C)(C)C#N)cc2)c2c3cc(-c4cnc5ccccc5c4)ccc3ncc21 [Dactolisib] + COc1cccc2cc(-c3nc([C@H]4CC[C@H](C(=O)O)CC4)n4ncnc(N)c34)[nH]c12 [OSI-027] (partner 0.5 µM)
# Procedure, shortened: as §1
# AZ505 + Pictilisib = compound: C1CCC(CC1)N(CCNCCC2=C3C(=C(C=C2)O)NC(=O)CO3)C(=O)CCNCCC4=CC(=C(C=C4)Cl)Cl [AZ505] + CS(=O)(=O)N1CCN(Cc2cc3nc(-c4cccc5[nH]ncc45)nc(N4CCOCC4)c3s2)CC1 [Pictilisib] (partner 1 µM)
# Procedure, shortened: as §1
# Dactolisib + AZD7762 = compound: Cn1c(=O)n(-c2ccc(C(C)(C)C#N)cc2)c2c3cc(-c4cnc5ccccc5c4)ccc3ncc21 [Dactolisib] + NC(=O)Nc1cc(-c2cccc(F)c2)sc1C(=O)N[C@H]1CCCNC1 [AZD7762] (partner 0.2 µM)
# Procedure, shortened: as §1
Cell Line,relative viability (AZ505 + Luminespib; first compound 0.08 µM),relative viability (AZ505 + Luminespib; first compound 0.253 µM),relative viability (AZ505 + Luminespib; first compound 0.8 µM),relative viability (AZ505 + Luminespib; first compound 2.53 µM),relative viability (AZ505 + Luminespib; first compound 8 µM),relative viability (Dactolisib + OSI-027; first compound 0.002 µM),relative viability (Dactolisib + OSI-027; first compound 0.006325 µM),relative viability (Dactolisib + OSI-027; first compound 0.02 µM),relative viability (Dactolisib + OSI-027; first compound 0.06325 µM),relative viability (Dactolisib + OSI-027; first compound 0.2 µM),relative viability (AZ505 + Pictilisib; first compound 0.08 µM),relative viability (AZ505 + Pictilisib; first compound 0.253 µM),relative viability (AZ505 + Pictilisib; first compound 0.8 µM),relative viability (AZ505 + Pictilisib; first compound 2.53 µM),relative viability (AZ505 + Pictilisib; first compound 8 µM),relative viability (Dactolisib + AZD7762; first compound 0.002 µM),relative viability (Dactolisib + AZD7762; first compound 0.006325 µM),relative viability (Dactolisib + AZD7762; first compound 0.02 µM),relative viability (Dactolisib + AZD7762; first compound 0.06325 µM),relative viability (Dactolisib + AZD7762; first compound 0.2 µM)
HCC-15,0.264,0.323,0.346,0.312,0.302,0.686,0.678,0.683,0.473,0.317,0.658,0.657,0.712,0.462,0.71,1.18,1.02,1.26,1.13,0.971
HCC-44,0.969,1.03,1.03,1.09,1.18,0.492,0.559,0.634,0.439,0.466,0.635,0.716,0.479,0.669,0.601,1.03,1.03,0.951,1.07,1.14
HCC-827,0.731,1.03,0.683,0.532,1.11,0.8,0.774,0.787,0.826,0.759,0.944,0.963,1.1,0.999,0.953,0.226,0.279,0.176,0.184,0.231
HOP-62,0.864,0.883,0.824,0.884,1,0.986,0.881,0.728,0.611,0.492,0.557,0.678,0.829,0.407,0.647,0.513,0.403,0.657,0.261,0.198
LC-2-ad,0.927,0.881,1.06,0.868,1.16,0.938,0.844,0.769,0.582,0.546,0.427,0.422,0.465,0.515,0.508,0.812,0.816,0.86,0.71,0.593
LCLC-97TM1,0.774,0.853,0.836,0.749,0.871,0.673,0.564,0.542,0.717,0.459,0.233,0.171,0.273,0.144,0.15,0.197,0.325,0.291,0.18,0.135
LCLC-103H,0.914,0.961,0.877,0.877,0.997,0.509,0.5,0.465,0.519,0.431,0.627,0.532,0.555,0.657,0.6,0.797,0.781,0.703,0.582,0.467
LK-2,0.189,0.175,0.172,0.225,0.176,0.176,0.205,0.213,0.207,0.159,0.562,0.706,0.59,0.597,0.604,0.273,0.447,0.305,0.12,0.0726
LOU-NH91,0.326,0.331,0.331,0.347,0.38,0.701,0.716,0.741,0.732,0.519,0.493,0.512,0.537,0.452,0.531,0.753,0.734,0.69,0.575,0.533
LU99A,,0.268,0.212,0.175,0.286,0.294,0.327,0.332,0.314,0.276,0.318,0.327,0.302,0.354,0.315,0.305,0.247,0.263,0.166,0.127
LXF-289,0.663,0.685,0.668,0.73,0.818,0.93,0.865,0.821,0.692,0.684,0.706,,0.773,0.731,0.818,1.14,1.13,1.19,1.14,0.862
NCI-H23,0.214,,0.208,0.221,0.196,0.683,0.577,0.564,0.308,0.385,0.402,,0.582,0.416,0.478,0.241,0.232,0.309,0.19,0.101
NCI-H322M,0.931,0.84,0.798,0.819,0.918,0.542,0.56,0.562,0.535,0.515,0.517,0.422,0.562,0.508,0.504,0.524,0.547,0.424,0.425,0.408
NCI-H358,0.22,0.306,0.402,,0.584,0.805,0.683,0.585,0.254,0.173,0.3,0.332,0.355,0.313,0.371,0.474,0.545,0.559,0.445,0.188
NCI-H441,0.248,0.388,0.313,0.308,0.445,0.915,0.725,0.716,0.44,0.344,0.427,0.548,0.458,0.546,0.521,1.04,1.28,1.18,0.764,0.449
NCI-H460,0.0296,0.0436,0.0262,0.0334,0.0373,0.829,0.661,0.615,0.119,0.153,0.264,0.299,0.337,0.29,0.364,0.588,0.662,0.614,0.379,0.115
